# Assay: Thermodynamic stability of crystalline polymorphs (enantiotropic transition, storage)
# Format: physicochemical
# Conditions: for enantiotropic transition temperature between Form A and Form C: free base polymorphs; for thermodynamic stability of the crystalline form: relative to other crystalline forms of Compound I, temperature range as stated; for solid form stability at room temperature / on storage: room temperature (22° C.)
enantiotropic transition temperature between Form A and Form C,SMILES,thermodynamic stability of the crystalline form,solid form stability at room temperature / on storage
approximately 81 °C,"O=C1O[C@]2(CC[C@H](C(=O)Nc3ccn(-c4ccccc4F)n3)CC2)c2cnccc21 [Form A, trans-N-[1-(2-fluorophenyl)-3-pyrazolyl]-3-oxospiro[6-azaisobenzofuran-1(3H),1′-cyclohexane]-4′-carboxamide]",most thermodynamically stable crystalline form of compound (I) above 81 °C,instability
approximately 81 °C,"O=C1O[C@]2(CC[C@H](C(=O)Nc3ccn(-c4ccccc4F)n3)CC2)c2cnccc21 [Form C, trans-N-[1-(2-fluorophenyl)-3-pyrazolyl]-3-oxosiro[6-azaisobenzofuran-1(3H),1′-cyclohexane]-4′-carboxamide]",most thermodynamically stable crystalline form of Compound I below 81 °C,not subject to transforming to another crystal form
